Data from patent US9642858B2, “Use of resazurin, or analogs thereof, for antibacterial therapy” (priority 2012, dated 2017).
In brackets after ≈: the same amount, converted by molar mass. Entries after “also recorded” stand apart in the source; their conditions may differ.

Experiments:
N. sicca = format: cell-based, Neisseria sicca
[1] = system: primary human macrophages; assay: Viability of infected macrophages treated with resazurin (visible reduction of resazurin to resorufin)
Escherichia coli = format: cell-based; conditions: 44 μM
F. tularensis LVS = assay: microbe, parasite or virus in culture; format: cell-based, Francisella tularensis
N. polysaccharea = format: cell-based, Neisseria polysaccharea
N. gonorrhoeae = format: cell-based, Neisseria gonorrhoeae; conditions: 44 μM
[2] = system: F. tularensis LVS in HEK-293 cells; format: cell-based, Francisella tularensis
[3] = system: type A F. tularensis (Schu S4); format: cell-based, Francisella tularensis; conditions: 44 μM
Pseudomonas aeruginosa = format: cell-based; conditions: 44 μM
[4] = system: F. tularensis LVS in primary human macrophages; format: cell-based, Francisella tularensis
F. novicida = format: cell-based, Francisella novicida

## O=c1ccc2[n+]([O-])c3ccc(O)cc3oc-2c1 [resazurin, 7-Hydroxy-3H-phenoxazin-3-one 10-oxide]
N. sicca
  bactericidal activity: bactericidal
[1]
  viability of macrophages (toxicity): still viable
Escherichia coli
  bacterial viability / antimicrobial effect: does not have an antimicrobial effect; also recorded: no effect on bacterial viability
F. tularensis LVS
  F. tularensis growth: growth is inhibited
  antibacterial activity (viable bacteria per ml): have antibacterial activity
  antimicrobial activity, effect of medium: not affected by the choice of medium
  bacterial viability over time: significant decline in viable bacteria
  bactericidal activity to F. tularensis: bactericidal
  reduction in viable F. tularensis LVS bacteria compared to growth medium alone: ~10 fold
  viable bacteria: decrease in viable bacteria
F. tularensis LVS; Francisella tularensis, read-out: minimal inhibitory concentration against F. tularensis
  MIC: 4.4 µM (≈ 1.01 µg/mL)
N. polysaccharea
  bactericidal activity: bactericidal
N. gonorrhoeae
  bactericidal effect on chocolate II agar: potent bactericidal effect
[2]
  intracellular growth / bacterial burden: inhibited intracellular growth; also recorded: reduces bacterial burden
  viable intracellular bacteria compared to the control: substantial decrease in viable bacteria
[3]
  bactericidal effect on chocolate II agar: potent bactericidal effect
Pseudomonas aeruginosa
  bacterial viability / antimicrobial effect: does not have an antimicrobial effect; also recorded: no effect on bacterial viability
[4]
  intracellular growth / bacterial burden: inhibited intracellular growth; also recorded: reduces bacterial burden
  viable intracellular bacteria: substantial decrease in viable bacteria
F. novicida
  bactericidal activity: bactericidal

## O=c1ccc2nc3ccc(O)cc3oc-2c1 [resorufin]
F. tularensis LVS
  antibacterial activity (viable bacteria per ml): have antibacterial activity
  antimicrobial effect on F. tularensis LVS viability (CFU) relative to resazurin: equivalently potent antimicrobial effect
  bactericidal activity to F. tularensis: bactericidal
